Data reported in paper PMC3199943, “Screening the MayBridge Rule of 3 Fragment Library for Compounds That Interact with the Trypanosoma brucei myo-Inositol-3-Phosphate Synthase and/or Show Trypanocidal Activity” (Molecular Biology International, 2011).
Counter-ions that a name gives are not always drawn. Like-named read-outs stand apart in the source and are kept apart here.

Columns and labels:
HeLa cells = assay: cells; conditions: for viability at 500 µM: Homo sapiens, HeLa, 65 h; for HeLa Cells Alamar Blue: Supplementary Table 1
How it was run: (§1)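 Viability by Alamar Blue (5 h) after ~65 h drug treatment; seeding density 2 × 10^4 cells/well in DMEM supplemented with 10% FCS and 2 mM L-Glutamine.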

TbINO1 = target: T1, TbINO1 (Trypanosoma brucei brucei, UniProt Q5QQ46); assay: biochemical; assay type: binding
T1 sequence (Q5QQ46 1-528): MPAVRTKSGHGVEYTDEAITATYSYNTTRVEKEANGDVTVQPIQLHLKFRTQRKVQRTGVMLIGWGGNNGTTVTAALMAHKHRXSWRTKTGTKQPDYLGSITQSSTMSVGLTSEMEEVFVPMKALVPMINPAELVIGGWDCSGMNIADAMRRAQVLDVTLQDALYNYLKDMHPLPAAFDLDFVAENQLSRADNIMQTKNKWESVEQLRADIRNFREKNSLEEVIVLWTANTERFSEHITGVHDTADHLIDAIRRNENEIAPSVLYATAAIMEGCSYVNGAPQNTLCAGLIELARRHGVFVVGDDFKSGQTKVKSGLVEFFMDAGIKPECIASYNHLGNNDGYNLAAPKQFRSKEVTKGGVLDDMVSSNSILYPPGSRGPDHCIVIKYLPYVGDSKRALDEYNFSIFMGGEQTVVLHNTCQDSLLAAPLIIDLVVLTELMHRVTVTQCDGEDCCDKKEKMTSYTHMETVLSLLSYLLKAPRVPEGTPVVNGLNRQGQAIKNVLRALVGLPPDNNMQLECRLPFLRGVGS

A549 cells = assay: Cytotoxicity against A549 cells, Alamar Blue; assay type: cell-based; conditions: Supplementary Table 1, compound 0.5 mM, percentage of controls (n=1); for viability at 500 µM: Homo sapiens, A549, 65 h
How it was run: as §1

[1] = read-out: HeLa Cells Alamar Blue
[2] = read-out: Tb Ino1 Tm Shift [˚C]
[3] = compound 0.5 mM, percentage of controls, mean ± SD (n=3) or SE (n=2)
[4] = Supplementary Table 1, compound 1mM, mean ± SD from Boltzman curve fitting
[5] = read-out: HeLa Cells Alamar Blue, Supplementary Table 1, compound 0.5 mM, percentage of controls, mean ± SD (n=3) or SE (n=2)
[6] = Supplementary Table 1, compound 1mM, mean ± SD from Boltzman curve fitting, read-out: Tb Ino1 Tm Shift [˚C]

| Molecule | viability at 500 µM (HeLa cells; [1]) [%] | ΔTm at 1000 µM (TbINO1; [2]) [°C] | viability at 500 µM (A549 cells) [%] | HeLa Cells Alamar Blue (HeLa cells; [3]) | Tb Ino1 Tm Shift [˚C] (TbINO1; [4]) [°C] | A549 Cells Alamar Blue (A549 cells) | further results |
| --- | --- | --- | --- | --- | --- | --- | --- |
| O=C(O)c1cccc(-c2ccccn2)c1 [compound 611, 3‐pyrid‐2‐ylbenzoic acid] | 87 ± 12.6 | 0.19 ± 0.07 | 73.9 |  |  |  |  |
| O=C(O)c1ccccc1-c1cccnc1 [compound 613, 2‐pyrid‐3‐ylbenzoic acid] | 80 ± 5.6 | 0.14 ± 0.07 | 59.8 |  |  |  |  |
| O=C(O)c1cccc(-c2ccncc2)c1 [compound 614, 3‐pyrid‐4‐ylbenzoic acid] | 81.2 ± 15.9 | 0.46 ± 0.12 | 66.3 |  |  |  |  |
| O=C(O)c1cncc(-c2ccccc2)c1 [compound 615, 5‐phenylnicotinic acid] | 80.4 ± 11.7 | 1.28 ± 0.09 | 75.6 |  |  |  |  |
| CCOC(=O)c1c(N)sc(C)c1C [compound 617, ethyl 2‐amino‐4,5‐dimethylthiophene‐3‐carboxylate] |  |  |  | 69.1 ± 9.3 percentage of controls | 1.47 ± 0.07 | 75.2 percentage of controls |  |
| OCc1ccc(N2CCOCC2)s1 [compound 618, (5‐morpholinothien‐2‐yl)methanol] | 70.4 ± 13.2 | 1.12 ± 0.11 | 76.3 |  |  |  |  |
| CC(C)(C)OC(=O)Nc1ccsc1 [compound 619, tert‐butyl N‐(3‐thienyl)carbamate] | 80 ± 17.5 | 0.21 ± 0.07 | 74.9 |  |  |  |  |
| CC(C)(C)OC(=O)Nc1cccs1 [compound 620, tert-butyl N-(2-thienyl)carbamate] | 71.3 ± 13.6 |  | 109 |  |  |  | viability at 500 µM (HeLa cells; read-out: HeLa Cells Alamar Blue (% survival)): 71.3 ± 13.6%; ΔTm at 1000 µM (TbINO1; read-out: TbIno1 Tm shift [°C]): 2.08 ± 0.1 °C |
| Cc1nc(-c2ccc(C#N)cc2)cs1 [compound 625, 4‐(2‐methyl‐1,3‐thiazol‐4‐yl)benzonitrile] | 74.1 ± 7.1 | 1.06 ± 0.07 | 79.4 |  |  |  |  |
| NCc1nc2ccccc2s1 [compound 626, 1,3-benzothiazol-2-ylmethylamine hydrochloride] |  |  | 85.7 |  |  |  | viability at 500 µM (HeLa cells; read-out: HeLa Cells Alamar Blue (% survival), compound 0.5 mM, percentage of controls): 95.1 ± 15.5%; viability at 500 µM (HeLa cells; [5]): 95.1 ± 15.5%; ΔTm at 1000 µM (TbINO1; read-out: TbIno1 Tm shift [°C]): 2.03 ± 0.08 °C |
| COC(=O)c1ccccc1-n1cccc1 [compound 628, methyl 2‐(1H‐pyrrol‐1‐yl)benzoate] | 70.4 ± 14 | 0.84 ± 0.08 | 85.1 |  |  |  |  |
| CNCc1cc(-c2ccccc2)nn1C [compound 631, N‐methyl‐N‐[(1‐methyl‐3‐phenyl‐1H‐pyrazol‐5‐yl)methyl]amine] |  |  |  | 66.2 ± 16.3 percentage of controls | 0.5 ± 0.08 | 100.2 percentage of controls |  |
| COC(=O)c1cccc(CN)c1.Cl [compound 632, 3‐Aminomethylbenzoic acid methyl ester hydrochloride] |  |  |  | 44.8 ± 10.2 percentage of controls | 0.22 ± 0.07 | 107.3 percentage of controls |  |
| N#CCOc1ccc(C(F)(F)F)cn1 [compound 634, 2‐{[5‐(trifluoromethyl)‐2‐pyridyl]oxy}acetonitrile] |  |  |  | 73.3 ± 1.6 percentage of controls | 0.24 ± 0.09 | 87.2 percentage of controls |  |
| Cc1cc(C(=O)O)c(-c2ccccc2)o1 [compound 635, 5‐methyl‐2‐phenyl‐3‐furoic acid] | 17.7 ± 16.2 | 0.38 ± 0.04 | 90.1 |  |  |  |  |
| CNCc1c(-c2ccccc2)noc1C [compound 637, N‐methyl‐N‐[(5‐methyl‐3‐phenylisoxazol‐4‐yl)methyl]amine] |  |  |  | 79.8 ± 7.5 percentage of controls | 0.02 ± 0.07 | 112.6 percentage of controls |  |
| N#Cc1ccc(OC2CCOCC2)cc1 [compound 645, 4‐(tetrahydropyran‐4‐yloxy)benzonitrile] | 77.4 ± 15.8 | 0.18 ± 0.05 | 102 |  |  |  |  |
| CNCc1ccccc1-c1cccs1 [compound 646, N‐methyl‐N‐(2‐thien‐2‐ylbenzyl)amine] |  |  | 66.9 |  |  |  | viability at 500 µM (HeLa cells; [5]): 36.5 ± 9.5%; ΔTm at 1000 µM (TbINO1; [6]): 0.1 ± 0.05 °C |
| O=C(O)c1ccc(-c2ccsc2)cc1 [compound 648, 4‐(3‐thienyl)benzoic acid] | 105 ± 8.2 | 0.25 ± 0.08 | 149 |  |  |  |  |
| Cc1cc(C(=O)O)c2cc(F)ccc2n1 [compound 660, 6‐fluoro‐2‐methyl‐4‐quinolinecarboxylic acid] |  |  |  | 103 ± 3.9 percentage of controls | 0.5 ± 0.06 | 146.9 percentage of controls |  |
| O=C(O)c1ccc(-c2ccccn2)s1 [compound 661, 5‐(2‐pyridyl)thiophene‐2‐carboxylic acid] | 95.3 ± 3.5 | 0.91 ± 0.07 | 94.1 |  |  |  |  |
| O=C(O)c1ccc(-c2nccs2)cc1 [compound 662, 4‐(1,3‐thiazol‐2‐yl)benzoic acid] | 102 ± 7.2 | 0.36 ± 0.06 | 100 |  |  |  |  |
| O=C(O)c1cccc(N2CCCCC2)c1 [compound 663, 3‐piperidinobenzoic acid] | 97.9 ± 1.5 | 1.23 ± 0.07 | 104 |  |  |  |  |
| Cc1nc(-c2ccccc2)c(CO)s1 [compound 666, (2‐methyl‐4‐phenyl‐1,3‐thiazol‐5‐yl)methanol] |  |  |  | 95.3 ± 5 percentage of controls | 0.08 ± 0.05 | 113.4 percentage of controls |  |
| Cc1nc(-c2ccc(CO)cc2)cs1 [compound 667, [4‐(2‐methyl‐1,3‐thiazol‐4‐yl)phenyl]methanol] |  |  |  | 76.7 ± 4.3 percentage of controls | 0.4 ± 0.07 | 103.8 percentage of controls |  |
| N#Cc1ccnc(N2CCSCC2)c1 [compound 668, 2‐thiomorpholinoisonicotinonitrile] | 80.3 ± 19.6 | 1.06 ± 0.07 | 98.5 |  |  |  |  |
| CN1CCN(Cc2ccccc2N)CC1 [compound 670, 2‐[(4‐methylpiperazin‐1‐yl)methyl]aniline] | 94.6 ± 8.5 |  | 121 |  |  |  | ΔTm at 1000 µM (TbINO1; [6]): 0.05 ± 0.07 °C |
| (Piperidino‐3‐pyridinyl)methanol [compound 569] |  |  |  | 89.2 ± 4.8 percentage of controls | 0.35 ± 0.07 | 106.4 percentage of controls |  |
